Measured values as given in patent US6342368B1, “WD-40-derived peptides and uses thereof” (The Board of Trustees of the Leland Stanford Junior …, priority 1994, dated 2002).
Where “and” joins values, the source holds several entries; their conditions need not be identical. Identical values can stand only once. Entries after “also recorded” stand apart in the source; their conditions may differ.

Experiments:
[1] = test system: PKC; test: PKC autophosphorylation; format: biochemical, rat; details: peptide 10 μM; absence of PKC activators
Protocol: Rat brain PKC (˜10 nM) was incubated with mild agitation in a final volume of 250 μl of overlay buffer, as in Example 1 either with anti-βPKC pseudosubstrate antibodies (1:10 dilution, Life Technologies, Gaithersburg, Md.) or with the indicated peptide (10 μM). Where indicated, PS (50 μg/ml), DG (0.8 μg/ml) and CaCl2 (1 mM) were also added. The amount of autophosphorylation was determined after 2 hours for the reaction with the anti-pseudosubstrate antibodies, or after 15 minutes for the other samples. 50 μl of a buffer comprised of 20 mM Tris-HCl (pH 7.5), 20 mM MgCl2, 20 μM ATP and 5 μci/ml [γ-^32P]ATP. The mixture was incubated for 15 minutes at room temperature and the reaction was stopped by adding 60 μl sample buffer (see Example 9). The samples were then boiled for 10 minutes, loaded onto a 10% SDS-PAGE mini gel and electrophoresed. The gel was fixed with 50% methanol and 10% acetic acid for 1 hour, and the autophosphorylation of PKC was determined by autoradiography.
The results in FIG. 8 show PKC autophosphorylation in the presence of DG, PS, and calcium (lane 1), in the presence of EGTA (lane 2), in the presence of anti-βPKC pseudosubstrate antibodies (diluted 1:10 in 20 mM Tris-HCl; lane 3), in the presence of peptide rVI (SEQ ID NO:7; 10 μM; lane 4), in the presence of peptide I (SEQ ID NO:1; 10 μM; lane 5), or in the presence of control peptide (SEQ ID NO:9; 10 μM; lane 6).

[2] = test system: Xenopus oocytes; test: PKC-mediated Xenopus oocyte maturation (germinal vesicle breakdown, GVBD) after peptide microinjection; format: cell-based; details: for plateau % GVBD (fraction of oocytes reaching maturation) following insulin exposure: peptide 50 μM, 50 nl microinjected, 20 h time course
Protocol: Exposure to insulin induces maturation in Xenopus oocytes via a PKC-dependent pathway (Smith, et al., 1992). The maturation response may be quantified by monitoring the appearance of a white spot in the animal hemisphere of the oocyte, indicating germinal vesicle breakdown (GVBD) and maturation. To assess the effects of RACK1 WD-40-derived peptides on insulin-induced PKC-mediated maturation, 50 nl of a 20 mM NaCl solution containing the indicated peptides [peptide I (SEQ ID NO:1; ●), peptide rVI (SEQ ID NO:7; ▪), or injection solution (□)] (peptides at 50 μM) were microinjected into Xenopus oocytes. […] One hour following the peptide injections, the oocytes were exposed to a solution containing insulin (8.25 μg/ml) for 2 minutes (t=0). 10-15 oocytes were used for each sample.
The data, representative of three independent experiments, are expressed as the percent of oocytes with GVBD following insulin exposure and are plotted as a function of time in FIG. 5.

[3] = test system: PKC binding to recombinant RACK1; test: Overlay / overlay-extraction assay: inhibition of PKC binding to recombinant RACK1 by peptides; parameters: species or system rat
Protocol: The variation in the overlay protocol consisted of incubating the putative binding peptides with a mixture of PKC isozymes for 15 minutes at room temperature before the mixture was used to contact the nitrocellulose strips containing immobilized RACK1.
Nitrocellulose strips containing immobilized RACK1, that had been contacted with a solution containing a mixture of PKC isozymes, were washed and the area corresponding to the 36 kDa (RACK1-containing) band was cut out. The pieces (containing PKC/RACK1 complexes) were incubated with sample buffer for 10 minutes at 80° C. The sample buffer and the nitrocellulose pieces were then placed in wells in the PAGE gel and subjected to SDS-PAGE to elute the bound proteins. The gel was blotted onto nitrocellulose and a Western blot analysis was carried out using the mixture of antibodies (specific for PKC α, β, γ, δ, ε and ζ isozymes) described in Example 1 part B. Bound antibodies were detected by ^125I-protein A.
Peptides derived from or homologous to WD-40 repeats of RACK1 were tested for their ability to inhibit PKC binding to recombinant RACK1. Binding of PKC to RACK1 was carried out using a variation of the overlay procedure described in Example 3 part B. In the experimental samples, peptides were incubated with a solution containing a mixture of rat brain PKC isozymes (˜10 nM each) for 15 minutes at room temperature.
Following completion of the modified overlay protocol, the samples were subjected to the overlay-extraction protocol detailed in part B, above.
The results in FIG. 3 show the binding of PKC to RACK1, carried out without (lane 1) or with (lanes 2-4) a preincubation of peptides with PKC. […] Peptide I caused an 81±6% inhibition of PKC binding to recombinant RACK1 as compared with binding in the absence of added peptide (n=3). Lanes 3 and 4 show PKC binding following a preincubation with 10 μM peptide rIII (SEQ ID NO:4) and 10 μM peptide rVI (SEQ ID NO:7), respectively. […] The results shown are representative of three independent experiments.

[4] = test system: PKC; test: Histone type IIIs phosphorylation by PKC; format: biochemical; details: absence of PS, DG and calcium; peptide 10 μM
Protocol: Histone type IIIs (Sigma Chemical Company, St. Louis, Mo.) was phosphorylated by PKC (˜10 nM) in the absence (lane 1) and presence of peptide rVI (10 μM) (lanes 2 and 3) and in the presence and absence of DG (0.8 μg/ml), PS (50 μg/ml) and CaCl2 (1 mM) (lane 3). The results are expressed as percentage of control that is the amount of Histone phosphorylation by PKC in the presence of DG (0.8 μg/ml), PS (50 μg/ml) and CaCl2 (1 mM). The results are the average ± SEM of two independent experiments. PKC was first incubated with the peptide rVI (10 μM) for 15 minutes in overlay buffer as described above. Histone type IIIs (40 μg/ml) was added in Tris-HCl (20 mM), MgCl2 (20 mM), ATP (20 μM) and ([γ-^32P]ATP (5 μci/ml) with or without PS (50 μg/ml), DG (0.8 μg/ml) and CaCl2 (1 mM). Histone phosphorylation was determined by autoradiography as above.

[5] = test system: δ and εPKC isozymes; test: PKC isozyme translocation and degradation in cardiac myocytes; format: cell-based, rat
Protocol: In cardiac myocytes, norepinephrine (NE, 2 μM) causes translocation of δ and εPKC isozymes from the cytosolic to the particulate fraction. […] This peptide-induced translocation was followed by degradation of δ and εPKC isozymes.

[6] = peptide 50 μM microinjected, insulin 8.25 μg/ml
[7] = peptide introduced into cardiac myocytes

Substance | PKC autophosphorylation relative to that with optimal PS, DG and calcium [1] | delay to onset of maturation after exposure to insulin [2, 6] | time to reach GVBD plateau after insulin exposure [2, 6] | plateau % GVBD (fraction of oocytes reaching maturation) following insulin exposure ([2]; insulin 8.25 μg/ml) | effect on insulin-induced oocyte maturation (in words) ([2]; peptide microinjected, insulin) | inhibition of PKC binding to RACK1 (in words) ([3]; 10 μM peptide preincubated with PKC) | induction of PKC-mediated histone phosphorylation [4] | NE-induced translocation of δ and εPKC ([5]; norepinephrine 2 μM) | degradation of PKC isozymes [5, 7] | translocation / distribution of δ and εPKC isozymes in the absence of hormone stimulation [5, 7] | induction of PKC autophosphorylation (in words) [1] | inhibition of PKC binding to recombinant RACK1 as compared with binding in the absence of added peptide ([3]; 10 μM peptide preincubated with PKC isozyme mixture 15 min, n=3)
peptide rVI: eight amino acid peptide identical to a segment of RACK1 WD-40 repeat VI (DIINALCF) | over 80% | 3 to 4 h | ≤ 5 h | ~100% and 95-100% | potentiates the effects of insulin on oocyte maturation | inhibit the binding of PKC to RACK1 | effective to induce PKC-mediated histone phosphorylation; also recorded: induced histone phosphorylation |  |  |  |  | 
peptide I: 15-residue peptide homologous to a sequence in the sixth WD-40 repeat of RACK1; PKC antagonist (KGDYEKILVALCGGN) |  |  |  | 45-50% |  |  |  | inhibited | nor does it induce PKC degradation; also recorded: did not cause degradation | does not affect PKC distribution | No autophosphorylation; also recorded: Neither peptide I nor control peptide induced PKC autophosphorylation | 81±6%
